System: thrombin generation in patient plasma
Assay: Thrombin generation in plasma of inhibitor patients before and 5 minutes after rhFVIIa infusion, ^superFVa added ex vivo
Format: biochemical, human
Excerpt: Normal pooled human plasma and plasma from human FVIII-deficient patients with and without inhibitors (titer specified in Bethesda Units (BU)) was purchased from George King Bio-Medical (Overland Park, Kans., USA). In addition, plasma and clinical information was obtained from two patients with severe FVIII-deficiency (<1% intrinsic FVIII-activity levels) and inhibitors (titers determined in BU by the clinical laboratory using the Nijmegen assay (17) regularly visiting the Hemophilia Treatment Center at the University of California, San Diego (UCSD) after informed consent was obtained. Patient confidentiality safeguards, sample and data acquisition methods were approved by the UCSD Institutional Review Board. Blood was drawn into 3.8% sodium citrate (pH 5.5) at a 9:1 blood/anticoagulant volume ratio, and processed immediately. Plasma was collected and frozen at −80° C. after centrifugation at 2600×g for 15 minutes. The following reagents were used: Thrombin from Enzyme Research Laboratories (South Bend, Ind., USA), hirudin from Calbiochem (San Diego, Calif., USA), Corn trypsin inhibitor (CTI) from Enzyme Research Laboratories, thrombin calibrator from Synapse BV (distributed by Diagnostica Stago), Substrate Z-Gly-Gly-Arg-AMC from Bachem (Bubendorf Switzerland), recombinant human tissue factor (TF), Dade Innovin from Dade Behring (Newark, Del., USA), mouse anti-human FVIII (GMA8015) and isotype antibody (GMA650) from Green mountain antibodies (Burlington, Vt., USA), recombinant human FVIIa, NovoSeven®, from NovoNordisk (Bagsvaerd, Denmark), Phospholipid vesicles (80% phosphatidylcholine (PC), 20% phosphatidylserine (PS)) were purchased from Avanti Lipids (Alabaster, Ala., USA) and prepared as described (18).
Endogenous thrombin potential (ETP) assays were performed as described (19). Briefly, plasma samples supplemented with CTI, TF, PCPS vesicles and coagulation factors were preincubated with the plasma at 37° C. Thrombin generation was initiated by addition of CaCl2 and Z-Gly-Gly-Arg-AMC in HBS/0.5% BSA. The final reaction mixture contained, 50% plasma, 0.2 pM TF, […] PCPS vesicles, 0.725 μM CTI, 0.5 mM Z-GGR-AMC and 7.6 mM CaCl2 in a total volume of 100 μL. In some experiments, 1.25 μg/ml anti-FVIII antibody was added to the plasma and ETP was determined after 1 hour of preincubation. Fluorescence was measured at excitation/emission wavelengths of […] using Gemini EM fluorescent plate reader (Molecular Devices). Fluorescence time course data were converted to nM thrombin as described (20). ETP, defined as the area under the curve (AUC) and the peak height were determined using Origin or GraphPad Prism software.
This example relates to the experiments the results of which are contained in FIG. 5. […]

[1] = increasing ^superFVa added ex vivo, plasma before and 5 minutes after rhFVIIa infusion

## ^superFVa: engineered APC-resistant FVa variant (SEQ ID NO:4): R306Q, R506Q, R679Q, Cys609-Cys1691 disulfide, S2183A, B-domain deleted
Patient A, BU=64
  ^superFVa concentration at which ETP plateaued: 10 nM
[1]
  additional increase of ETP: ~3 fold
  additional increase of peak height: ~3 fold
Patient with BU=64
  ^superFVa concentration at which ETP plateaued: 1.76 µg/mL

Reference: US10407488B2, “Therapy for treatment or prevention of conditions associated with bleeding or hypocoagulation” (THE REGENTS OF THE UNIVERSITY OF CALIFORNIA, priority 2013, dated 2019)
